This note sets out measurements from US20260234217A1, “USE OF BMP RECEPTOR ALK1 INHIBITORS IN OSTEOARTHRITIS THERAPIES” (The Regents of the University of California, priority 2023, published 2026).

In this experiment the test system is osteophytes in the DMM joint. The experiment can be described thus: Micro-CT total knee osteophyte volume in DMM mice. In kind it is in vivo, mouse. The procedure: Mice (C57BL/6J) were purchased from The Jackson Laboratory. All mice were housed on a 12-hour light/dark cycle with unrestricted access to standard mouse food and water. The DMM model of injury induced OA was performed on mice at 12 weeks of age by opening the joint capsule and transecting the medial meniscotibial ligament in the right knee, destabilizing the medial meniscus(48). A sham operation was performed on the left knee of each mouse by observing the medial meniscotibial ligament but not transecting it. Mice were administered carprofen 5 mg/kg (Zoetis; 1041283) subcutaneously 30 minutes prior to surgery, immediately post-surgery, and 24 hours post-surgery to minimize pain.
Treatments were initiated either 1 day after DMM surgery once a week for 8 weeks, or 1 month after DMM surgery twice a week for 4 weeks. Mice were sacrificed at 20 weeks of age (2 months after surgery). To understand the level of articular cartilage damage 1 month after DMM surgery, a cohort of mice was sacrificed at 16 weeks old (FIG. 4).
Dissected knee joints underwent Micro-CT analysis using the Skyscan 1172 in vivo μCT scanner (Bruker micro-CT, Kontich, Belgium) at 55 kV and 181 μA, with a resolution of 10 μm. […] Average osteophyte volume was analyzed with Prism 9 Software (GraphPad) using two-way ANOVA and Tukey's multiple comparisons test post-hoc. […]

Turning to `COc1cc(-c2cc(-c3ccc(N4CCNCC4)cc3)cnc2C)cc(OC)c1OC` [LDN-214117], the “osteophyte volume (MicroCT)” value (applied after a 1-month delay) is listed as “significant reduction in osteophyte volume” and the “osteophyte volume (MicroCT)” value (treated immediately after surgery, compared to vehicle, week 8) is reported as “reduced osteophyte volume”.
